How the values were obtained:
Assay type in all cases: physicochemical
[1] = Forced degradation: solid state stressed by UV/VIS radiation
Protocol: Instrumentation: • Light stability chamber: Solarbox 1500e • Oven: Salvis Vacuum drying oven VC-20 • Heating unit: Ikamag RET-GS with IKA ETS SD and stainless steel heating block • Vials: Supelco V-Vials and screw caps with PTFE septa • Gas tight vials: Agilent 10 mL HS-GC clear glass vials and crimp caps with Not applicable PTFE septa • Quartz glass cuvette: Hellma precision cuvette Suprasil, Type 117.100-QS, 10 mm path length, screw capped with silicone septa • HPLC: As described above
The HPLC test method described above was used to determine the assay and purity of 6-(4-(tert-butyl)phenoxy)pyridin-3-amine monohydrochloride before the forced degradation experiments and the area % content of individual impurities and degradation products in the 6-(4-(tert-butyl)phenoxy)pyridin-3-amine monohydrochloride samples obtained from the degradation experiments.
The assay and the purity of 6-(4-(tert-butyl)phenoxy)pyridin-3-amine monohydrochloride were determined using HPLC with UV detection at 220 nm utilizing the area normalization methodology for purity determination and external standard calibration for assay determination. During all experiments the UV spectra from 200 nm to 950 nm have been recorded and also the peak purity of 6-(4-(tert-butyl)phenoxy)pyridin-3-amine monohydrochloride was assessed.
Two samples of 20.23 mg and 20.17 mg of 6-(4-(tert-butyl)phenoxy)pyridin-3-amine monohydrochloride were weighed each into a quartz glass cuvette. Both cuvettes were closed with the screw cap. One of the cuvettes was protected by wrapping it in aluminium foil. This sample served as dark control. Both cuvettes were placed alongside each other in the light stability chamber and were then exposed in accordance to guideline to UV/VIS radiation applying energy of 500 W/m^2 until a total illumination of 1200 kLux·h was reached. After exposure to the UV/VIS radiation for an illumination of 1200 kLux·h the sample was brought to room temperature and the content of the cuvette was dissolved in about 2 mL of the sample solvent (acetonitrile/water 3:1 v/v). The obtained solution was quantitatively transferred into a 25 mL volumetric flask. Then the cuvette was rinsed five times with about 2 mL sample solvent, whereupon each time the content of the cuvette was also transferred into the 25 mL volumetric flask. After the flask was filled up to volume with the sample solvent and was shaken well, an aliquot of this solution was transferred into a HPLC vial for analysis. Result: In solid state 6-(4-(tert-butyl)phenoxy)pyridin-3-amine monohydrochloride is stable against UV/VIS radiation. After an illumination of 1200 kLux·h, applying an energy of 500 W/m^2, the purity decreased by 0.6 area % which was mainly related to the occurrence of two unknown impurities.

[2] = Solubility in water at various pH-values; conditions: for calculated concentration charged: soluble
Protocol: The solubilities in water of 6-(4-(tert-butyl)phenoxy)pyridin-3-amine (formula (Ia)) and the monohydrochloride salt thereof, i.e. 6-(4-(tert-butyl)phenoxy)pyridin-3-amine monohydrochloride, were assessed at various pH-values according to Tables 3 and 4. The solubility in water of 6-(4-(tert-butyl)phenoxy)pyridin-3-amine (formula (Ia)) according to Table 3 was assayed as follows: Free base 500 mg were charged into 14 mL of acidic media at pH=2, 4, at neutral pH=7 and basic pH=10 to afford suspensions within calculated concentration of appr. 35 mg/mL. The solubility in water of 6-(4-(tert-butyl)phenoxy)pyridin-3-amine monohydrochloride according to Table 4 was assayed as follows: HCl salt 100 mg each were charged into acidic media at pH=2 and 4 and neutral media pH=7 to furnish solutions. Most important observation was to that at a neutral solution at pH=7 drops down to pH=1 by charging HCl salt 100 mg.

[3] = Stability study, storage 5° C.
Protocol: For 6-(4-(tert-butyl)phenoxy)pyridin-3-amine monohydrochloride two different types of stability studies were performed including short-term and long-term stability studies, respectively, […] In terms of analytical determinations six tests were involved including appearance, assay free base mean and purity mean, water, IR and XRPD. Appearance was determined by visual inspection. The product should be a white or off-white powder. Water content was determined according to USP <921> coulometric method. Identification of 6-(4-(tert-butyl)phenoxy)pyridin-3-amine monohydrochloride by IR spectroscopy was done according to USP <197>, comparing the spectrum obtained to that of the reference standard. X-Ray powder diffraction (XRPD) was performed according to USP <941> against the reference XRPD spectrum. Purity and assay of free base was done by HPLC-UV. Two methods were used. Mobile phases in the first method were water and acetonitrile. Mobile phases in the second method were water (0.5 mL of trifluoroacetic acid was added to 1000 mL of water) and acetonitrile (0.4 mL of trifluoroacetic acid was added to 1000 mL of acetonitrile). Equipment and chromatographic conditions for identification and determination of purity and assay of the 6-(4-(tert-butyl)phenoxy)pyridin-3-amine monohydrochloride by HPLC-UV according to the first method and the second method, respectively, are shown in Tables 5 and 6. [table] [table]

[4] = solid state, illumination of 1200 kLux·h, 500 W/m^2
[5] = 15% acetic acid soln., pH solvent 2, 100 mg in 0.6 ml
[6] = Fluka 33643 (pH = 4), 100 mg in 1.4 ml
[7] = Fluka 33646 (pH = 7), 100 mg in 1.0 ml
[8] = 6 months stability studies, 55° C., 3 mths
[9] = 6 months stability studies, 55° C., 6 mths
[10] = 6 months stability studies, 55° C., Release data
[11] = 36 months stability studies, 5° C., 6 mths
[12] = 36 months stability studies, 5° C., 9 mths
[13] = 36 months stability studies, 5° C., 12 mths
[14] = 36 months stability studies, 5° C., 18 mths
[15] = 36 months stability studies, 5° C., 24 mths

decrease in the assay ([1]; dark control (cuvette wrapped in aluminium foil) in the light stability chamber): 2.4 % w/w
stability against UV/VIS radiation ([1]; solid state): stable
decrease in the assay [1, 4]: 2.1 % w/w
purity decrease [1, 4]: 0.6 area %
pH solution [2, 5]: 0
soluble ([2]; 15% acetic acid soln., pH solvent 2, 100 mg in 0.6 ml, conc. 166.66 mg/mL): yes
calculated concentration charged [2, 5]: 166.66 mg/mL
pH solution [2, 6]: 1
soluble ([2]; Fluka 33643 (pH = 4), 100 mg in 1.4 ml, conc. 71.43 mg/mL): yes
calculated concentration charged [2, 6]: 71.43 mg/mL
pH solution [2, 7]: 1
soluble ([2]; Fluka 33646 (pH = 7), 100 mg in 1.0 ml, conc. 100.00 mg/mL): yes
calculated concentration charged [2, 7]: 100.00 mg/mL
solubility in water ([2]; water, in words): well-soluble
Assay free base, mean [3, 8]: 87.2 % m/m
IR, conforms to reference [3, 8]: complies
Purity, mean [3, 8]: 99 % area
Water [3, 8]: 0.02 % m/m
Assay free base, mean [3, 9]: 87.6 % m/m
IR, conforms to reference [3, 9]: complies
Purity, mean [3, 9]: 99 % area
Water [3, 9]: 0.02 % m/m
Assay free base, mean [3, 10]: 89.4 % m/m
IR, conforms to reference [3, 10]: complies
Purity, mean [3, 10]: 100.0 % area
Water [3, 10]: 0.01 % m/m
Water ([3]; 36 months stability studies, 5° C., 3 mths): 0.02 % m/m
Assay free base, mean [3, 11]: 87.5 % m/m
Purity, mean [3, 11]: 100.0 % area
Water [3, 11]: 0.02 % m/m
Assay free base, mean [3, 12]: 89.6 % m/m
Purity, mean [3, 12]: 100.0 % area
Water [3, 12]: 0.03 % m/m
Assay free base, mean [3, 13]: 87.3 % m/m
Purity, mean [3, 13]: 100.0 % area
Water [3, 13]: 0.02 % m/m
Assay free base, mean [3, 14]: 87.0 % m/m
Purity, mean [3, 14]: 100.0 % area
Water [3, 14]: 0.01 % m/m
Assay free base, mean [3, 15]: 88.3 % m/m
Purity, mean [3, 15]: 100.0 % area
Water [3, 15]: 0.02 % m/m
Water ([3]; 36 months stability studies, 5° C., Release data): 0.01 % m/m
Compound: CC(C)(C)c1ccc(Oc2ccc(N)cn2)cc1.Cl [6-(4-(tert-butyl)phenoxy)pyridin-3-amine monohydrochloride]
